The values below come from patent US3956292A, “7-(α-FUROYLUREIDOARYL AND CYCLOHEXADIENYLACETAMIDO) CEPHALOSPORIN ANTIBIOTICS” (Eli Lilly and Company, priority 1975, dated 1976).

Assay type in all cases: cell-based
In one assay the test system is Aerobacter aerogenes. Description: Antibiotic activity in vitro, MIC by gradient plate method. Conditions: Klebsiella aerogenes. The protocol:
(§1) The antibiotic activity of the compounds of the invention is illustrated by the in vitro data presented in the following Tables I and II for two of the preferred compounds. In the tables, the minimum inhibitory concentrations (MIC) of the test compounds versus the indicated gram-positive and gram-negative microorganisms is presented. The MIC values were determined by the gradient plate method which is essentially the method described by Bryson and Szybalski, Science, 116, 45-46 (1952).
(§2) Table II lists the inhibitory activity in terms of MIC values against clinical isolates of penicillin resistant Staphylococcus microorganisms both in the presence of and in the absence of serum.

The next assay relates to Pseudomonas aeruginosa. Described as above. The protocol: as §1, §2
The test system of the next assay is Salmonella heidelberg. Described as above. As to conditions: Salmonella enterica. As for the experimental part:
as §1, §2

The test system of the next assay is Klebsiella pneumoniae. The assay is described as above. The protocol: as §1, §2
The subject of a further assay is Serratia marcescens. The assay is described as above. As for the experimental part:
as §1, §2

The next assay concerns Shigella sp. The assay is described as above. As for the experimental part: as §1, §2
In the next assay the test system is Escherichia coli. The assay is described as above. The protocol:
as §1, §2

The test system of assay [1] is Resistant Staphylococcus V-84. Kind of assay: Antibiotic activity vs. penicillin resistant Staphylococcus clinical isolates, MIC by gradient plate method. The protocol:
as §1, §2

Assay [2] deals with Resistant Staphylococcus V-41. The description is as above. The protocol: as §1, §2
The test system of assay [3] is Resistant Staphylococcus V-32. The description is as above. The protocol:
as §1, §2

Assay [4] concerns Resistant Staphylococcus X1.1. The assay is described as above. The protocol:
as §1, §2

Assay [5] has as its system Resistant Staphylococcus X-400. The description is as above. As for the experimental part: as §1, §2
[6] abbreviates: Staphylococcus, absence of serum (NS), read-out: MIC.

≈ marks a conversion by molar mass, not a printed value. Read-outs that look alike come from different tables or passages of the source.

Usually MIC stands for the lowest concentration found to suppress growth. `Cn1nnnc1SCC1=C(C(=O)O)N2C(=O)C(NC(=O)C(NC(=O)NC(=O)c3ccco3)c3ccccc3)C2SC1` (stereo not drawn) [Test Compound A, 7-[α-(3-α-furoyl-1-ureido)-α-phenylacetamido]-3-(1-methyl-1H-tetrazole-5-ylthiomethyl)-3-cephem-4-carboxylic acid]: the MIC in the assay on Aerobacter aerogenes came to 7.5 µg/mL (≈ 12.5 µM); in the assay on Pseudomonas aeruginosa, 12.3 µg/mL (≈ 20.5 µM); in the assay with Salmonella heidelberg, 6.8 µg/mL (≈ 11.4 µM); with Klebsiella pneumoniae it was 5 µg/mL (≈ 8.35 µM); in the assay with Serratia marcescens, 19.5 µg/mL (≈ 32.6 µM); in the assay with Shigella sp., 5.5 µg/mL (≈ 9.19 µM). Moreover, the MIC was 7 µg/mL (≈ 11.7 µM) in the assay with Escherichia coli; 0.4 µg/mL (≈ 0.668 µM) in assay [1] (absence of serum (NS)); 1 µg/mL in assay [1] (presence of serum (S)); 3 µg/mL (≈ 5.01 µM) in assay [2] (absence of serum (NS)); 8 µg/mL in assay [2] (presence of serum (S)); 4.5 µg/mL (≈ 7.52 µM) in assay [3] (absence of serum (NS)). For the same compound, the MIC in assay [3] (presence of serum (S)) is 8 µg/mL; in [4] (absence of serum (NS)), 0.4 µg/mL (≈ 0.668 µM); in assay [4] (presence of serum (S)) it was 1 µg/mL; in assay [5] (setting [6]) it was > 20 µg/mL; in assay [5] (presence of serum (S)) it was > 20 µg/mL.

For the compound `Cn1nnnc1SCC1=C(C(=O)O)N2C(=O)C(NC(=O)C(NC(=O)NC(=O)c3ccco3)c3ccc(O)cc3)C2SC1` (stereo not drawn) [Test Compound B, 7-[α-(3-α-furoyl-1-ureido)-α-(4-hydroxyphenyl)acetamido]-3-(1-methyl-1H-tetrazole-5-ylthiomethyl)-3-cephem-4-carboxylic acid], the MIC worked out at 6.5 µg/mL (≈ 10.6 µM) in the assay on Aerobacter aerogenes; 10.7 µg/mL (≈ 17.4 µM) against Pseudomonas aeruginosa; 5.8 µg/mL (≈ 9.44 µM) in the assay with Salmonella heidelberg; 6.3 µg/mL (≈ 10.3 µM) against Klebsiella pneumoniae; 14.5 µg/mL (≈ 23.6 µM) against Serratia marcescens; 5.5 µg/mL (≈ 8.95 µM) against Shigella sp.. Besides, the MIC is 5.8 µg/mL (≈ 9.44 µM) against Escherichia coli; 1 µg/mL (≈ 1.63 µM) in [1] (absence of serum (NS)); 1 µg/mL in assay [1] (presence of serum (S)); 5 µg/mL (≈ 8.14 µM) in assay [2] (absence of serum (NS)); > 20 µg/mL in assay [2] (presence of serum (S)); 13.7 µg/mL (≈ 22.3 µM) in assay [3] (absence of serum (NS)). Also, the MIC in assay [3] (presence of serum (S)) was > 20 µg/mL; in assay [4] (absence of serum (NS)) it was 1 µg/mL (≈ 1.63 µM); in assay [4] (presence of serum (S)), 1 µg/mL; in [5] (setting [6]), > 20 µg/mL; in assay [5] (presence of serum (S)), > 20 µg/mL.
